Assay results: US20050192262A1, “Treatment of tumours” (priority 2001, published 2005)

Legend:
[1] = system: PC-3; assay: Caspase-3 apoptosis assay (Ac-DEVD-AMC fluorescence); assay type: cell-based, human; conditions: 96 hours; for Mean fluorescence PC-3 samples/100 cells n = 3: corrected for cell number; for Caspase 3-mediated fluorescence compared to untreated controls: PC-3, 100 nM, not corrected for cell numbers
Experimental: Exposure was maintained for 96 hours and cells in culture flasks were then treated with 5 ml of trypsin (0.25%) for PC-3 and trypsin and 3 ml of Versene (0.2 mM) for DU-145. Cells were then mechanically loosened, using a glass spatula. 100 μL aliquots were removed for Trypan blue exclusion trial. 200 μL aliquots were removed for cytospin preparations. The remaining 700 μL samples were then centrifuged for 5 minutes at 510×g at 4° C. Supernatant was removed and cells were resuspended in medium in 1 ml of insect cell lysis buffer (Pharmingen # 21425A) and incubated for 30 minutes on ice. The cell lysates were then stored at −70° C. until analysis.
Aliquots of a 100 μL of cell lysate were removed for the caspase assay. Each portion was mixed with 1 ml protease assay buffer and Ac-DEVD-AMC substrate (Pharmingen # 66081U) with a final concentration of 20 μM. Solutions were incubated for 60 minutes at 37° C.
To determine background fluorescence a control was prepared, containing no cell lysate but the same amounts of protease assay buffer, lysis buffer and Ac-DEVD-AMC substrate.
Fluorescence was measured using a spectrofluorometer (RF 540, Shimadzu Data Recorder DR3, Instrument AB, Lambda) at 415-450 nm with an excitation wavelength of 380 nm.

[2] = system: VEGF; assay: Immunostaining of tumour sections against VEGF; assay type: in vivo, rat
Experimental: Working dilution 1:100. As negative control antibody a mouse IgG, clone DAK-GO1, kappa, ×931, Dako, was used with a working dilution of 1:50.
The animal experiment described above was repeated.
Group 1 received a single dose of 10 mg 17α-AED sc. near tumour.
Group 2 received a single dose of 80 mg 17β-AED in the same way.
Group 3 received a single dose of 25 mg 17α OH-pregnenolone in the same way.
Group 4 received a single dose of 7.5 mg 5-androstene-3β,7β,17α-triol.

[3] = biological target: T1, PPARγ (Mus musculus, UniProt P37238); assay: Ligand-induced coactivator interaction assay (GST-PPARγ / SRC-1); assay type: biochemical; conditions: for PPARγ-ligand activity of the steroid per se: 10 and 100 μM solutions, no liver cytosol; for band in coactivator assay, steroid incubated with liver cytosol: liver cytosol alone gives weak bands, no PAPS
T1 construct: made in house; host or cells: E. coli strain Y 1090 (GST-PPARγ); TNT Coupled Reticulocyte Lysate System, Promega (SRC-1)
Experimental: ApcDNA3-SRC-1 construct was used as template to prepare (^35S-methionine)-SRC-1 by in vitro transcription and translation using the TNT® Coupled Reticulocyte Lysate System (Promega).
Ligand-induced interactions between GST-PPARγ and SRC-1: To generate GST-PPARγ fusion protein, mouse PPARγcDNA was inserted into the NcoI-HindIII sites of pGEX-KG, and protein was then expressed in E. coli, strain Y 1090. The bacteria were lysed by sonication in TEDG buffer (50 mM Tris (pH 7.4), 1.5 mM EDTA, 10% glycerol, 0.4 M NaCl, 0.1 mM DTT) containing the following protease inhibitors: 0.5 mM PMSF, 1 mM benzamidine, 10 μg/ml leupeptin, 10 μg/ml antipain and […] aprotinin. The lysates were centrifuged at 100,000×g for 60 min in a SW 41 rotor using a Beckman L8-70 M ultracentrifuge. The fusion protein was immobilized on GSH Sepharose beads (Pharmacia) and then incubated with potential ligands in (FIG. 5) 10 mM Tris (pH7.4), 0.12 M KCl, 8% glycerol, 4 mM DTT, and 0.5% CHAPS (buffer AA) for 30 min at room temperature. Thereafter, (^35S methionine) SRC-1 (ca 0.1 μCi) was added, and the beads were incubated for another hour at 4° C. and then washed extensively with buffer A. SDS sample buffer was added to the beads, and the samples boiled prior to separation on 7.5% SDS-PAGE. Radioactivity was detected by autoradiography.
α- and β-AED were investigated in above assay for PPARγ ligand activity in 10 and 100 μM solutions in ethanol 10%, in distilled water. 10 μL aliquots of α-AED-solution or β-AED-solution were also added to a preparation of a male rat liver cytosolic preparation prepared as follows:
A homogenate of a rat liver, a known source of steroid sulphotransferase activity, was prepared using a food processor. The liver homogenate was protected from serine-proteases by the addition of 2 mmol of PMSF, 1 mmol of EDTA and 10 mmol Tris-HCl buffered to a pH of 7.40. The homogenate was prepared at 4° C. and then centrifuged at 15000 g for 10 minutes, followed by centrifugation at 100000 g for an hour at 4° C. The supernatant was divided into test tubes containing one of the following steroids: 17β-AED or 17α-AED in 5 μM concentration together with 100 μL of liver cytosol. One test tube served as positive control and contained SCR-1.
In a second experiment the following steroids were tested for activity: 17α-AED, 17OH-pregnenolone and 5-androstene-3β,7β,17α-triol with and without 10 μL of […] (PAPS), Sigma Chemicals, corresponding to 0.1 mg of PAPS. One test tube served as a positive control and contained SRC-1 Instead of steroid. One test tube contained liver cytosol where the steroid sulphotransferase was inactivated by heating to 45° C. for 30 minutes. Tubes were stirred at 20° C. for 1 hour and the contents were investigated in the receptor-coactivator assay for ligand activity (FIG. 5).
17α-AED was treated in the method described by Arnostova, Libuse M.; Pouzar, Vladimir; Drasar, Pavel. Inst. Org. Chem. Biochem., Czech. Acad. Sci., Prague, Czech. Synth. Commun. (1990), 20(10), 1521-9, where acetate is used as protection group and pyridine —SO3 complex as the sulfating agent. Deprotection with an excess of 0.8M NaOH in MeOH-water provides the desired hydroxy sulfate, which is investigated, for PPARγ-activity in the ligand-activated-coactivator receptor assay described above.

[4] = system: PPARγ; conditions: Animals I; controls set to 100; mean (range); α-AED 10 mg 96 hours, β-AED 80 mg 456 hours, α+β sequential
Experimental: Thawed rat tumours from both experiments above were homogenized in ice cold lysis-buffer. (160 mM NaCl, 10 mM HEPES, 2 mM CaCl2, 5% SDS, 0.5% Triton X-100, 100 μg/ml phenyl-metylsulfonyl fluoride, 1 μg/ml leupeptin and 2 μg/ml aprotinin), placed on ice for 15 minutes and following clarification centrifuged for 10 minutes at 13,000 g. Protein content of homogenates were determined by Lowry assay.
Protein in lysates (90 μg) were separated by electrophoresis using 8% SDS-PAGE and separated proteins were transferred onto a nitrocellulose membrane (Amersham) in trans-blot electrophoretic transfer cell (Bio-Rad Laboratories).
After washing in TTBS the blots were reincubated with horseradish peroxidase conjugated secondary antibody (anti-goat antibodies 2020, Santa Cruz) diluted 1:4000 in TTBS containing 3% (w/v) non-fat, dried milk for one hour. Blots were developed using an enhanced chemiluminescence system (ECL, Amersham) and exposed to Hyperfilm ECL (Amersham). Optical density was measured densitometrically.
All experiments were repeated twice in separate assays.

T1 sequence (P37238 whole entry): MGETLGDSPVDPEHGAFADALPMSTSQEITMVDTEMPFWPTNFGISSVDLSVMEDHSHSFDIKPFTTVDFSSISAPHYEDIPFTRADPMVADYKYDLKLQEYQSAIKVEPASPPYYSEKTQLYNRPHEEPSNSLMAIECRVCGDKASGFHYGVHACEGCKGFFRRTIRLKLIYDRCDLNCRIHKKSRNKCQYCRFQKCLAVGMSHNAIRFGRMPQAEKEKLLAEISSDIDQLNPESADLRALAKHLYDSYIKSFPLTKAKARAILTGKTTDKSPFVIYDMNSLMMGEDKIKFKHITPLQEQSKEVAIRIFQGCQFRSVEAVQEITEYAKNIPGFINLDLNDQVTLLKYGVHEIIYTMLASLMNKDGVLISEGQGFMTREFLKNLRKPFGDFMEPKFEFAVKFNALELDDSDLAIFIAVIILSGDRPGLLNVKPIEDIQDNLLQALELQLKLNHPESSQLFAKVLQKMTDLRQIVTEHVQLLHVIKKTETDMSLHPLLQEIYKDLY
T1 sequence (Q15788 whole entry partner): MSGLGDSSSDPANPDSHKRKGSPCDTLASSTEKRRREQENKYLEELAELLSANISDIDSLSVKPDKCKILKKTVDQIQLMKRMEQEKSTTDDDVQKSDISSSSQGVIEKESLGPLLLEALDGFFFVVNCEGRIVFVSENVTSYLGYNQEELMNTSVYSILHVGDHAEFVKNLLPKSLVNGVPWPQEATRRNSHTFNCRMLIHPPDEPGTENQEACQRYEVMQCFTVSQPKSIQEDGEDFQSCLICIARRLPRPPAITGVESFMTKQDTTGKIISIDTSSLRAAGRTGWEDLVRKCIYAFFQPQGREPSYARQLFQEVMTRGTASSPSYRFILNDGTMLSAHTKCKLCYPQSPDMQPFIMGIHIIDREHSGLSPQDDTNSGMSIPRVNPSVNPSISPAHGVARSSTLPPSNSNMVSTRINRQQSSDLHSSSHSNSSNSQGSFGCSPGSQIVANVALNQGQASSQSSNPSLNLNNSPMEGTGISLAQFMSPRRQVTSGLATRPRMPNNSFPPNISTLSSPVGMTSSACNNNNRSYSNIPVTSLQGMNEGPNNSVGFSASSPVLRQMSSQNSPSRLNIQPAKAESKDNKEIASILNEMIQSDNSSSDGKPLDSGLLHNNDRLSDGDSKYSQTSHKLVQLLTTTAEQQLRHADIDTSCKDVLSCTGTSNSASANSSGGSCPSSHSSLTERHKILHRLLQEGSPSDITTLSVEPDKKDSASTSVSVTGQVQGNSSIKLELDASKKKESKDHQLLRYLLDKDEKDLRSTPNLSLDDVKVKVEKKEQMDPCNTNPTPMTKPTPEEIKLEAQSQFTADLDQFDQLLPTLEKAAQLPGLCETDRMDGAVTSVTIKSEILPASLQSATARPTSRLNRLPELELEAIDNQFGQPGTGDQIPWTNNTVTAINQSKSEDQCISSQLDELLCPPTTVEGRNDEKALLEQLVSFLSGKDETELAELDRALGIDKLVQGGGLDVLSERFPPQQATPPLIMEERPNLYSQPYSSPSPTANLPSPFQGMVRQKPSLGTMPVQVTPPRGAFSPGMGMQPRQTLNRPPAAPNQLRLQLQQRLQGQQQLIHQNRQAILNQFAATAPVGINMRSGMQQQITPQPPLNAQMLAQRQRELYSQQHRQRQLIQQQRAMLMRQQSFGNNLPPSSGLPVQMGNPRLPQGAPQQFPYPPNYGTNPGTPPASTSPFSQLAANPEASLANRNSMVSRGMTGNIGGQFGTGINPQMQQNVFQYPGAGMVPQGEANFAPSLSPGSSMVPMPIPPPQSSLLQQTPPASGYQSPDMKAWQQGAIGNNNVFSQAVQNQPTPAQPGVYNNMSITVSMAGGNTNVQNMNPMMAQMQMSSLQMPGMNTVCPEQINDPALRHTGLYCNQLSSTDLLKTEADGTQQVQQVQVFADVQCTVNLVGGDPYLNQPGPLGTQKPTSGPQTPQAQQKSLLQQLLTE

Compound | Mean fluorescence PC-3 samples/100 cells n = 3 ([1]; 100 nM, mean (range)) | Caspase 3-mediated fluorescence compared to untreated controls [1] | expression of VEGF (immunostaining) ([2]; Animals I, 3/4 samples) | PPARγ-ligand activity of the steroid per se [3] | band in coactivator assay, steroid incubated with liver cytosol [3] | PPARγ-ligand activity, steroid + liver cytosol + PAPS ([3]; second experiment, active liver cytosol, sulfate formed in situ) | PPARγ-ligand activity, native steroid + liver cytosol ([3]; second experiment, without PAPS) | PPARγ expression, optical density [4] | Mean fluorescence PC-3 samples n = 3 ([1]; 100 nM, mean (range)) | staining for VEGF ([2]; Animals II)
C[C@]12CC[C@H]3[C@@H](CC=C4C[C@@H](O)CC[C@@]43C)[C@@H]1CC[C@H]2O [Compound 17α-AED, androstene-3β,17α-diol] | 19.5(15.7-25.9) | essentially unaltered intensity | very weak | No sign of transcription pointing to a ligand activity | band was extinguished | significant difference in signal | insignificant responses | 190(176-210) |  | 
C[C@]12CC[C@H]3[C@@H](CC=C4C[C@@H](O)CC[C@@]43C)[C@@H]1CC[C@@H]2O [Compound 17β-AED, reference compound] | 45.5(24.5-75.2) | approximately a doubling of fluorescence |  | No sign of transcription pointing to a ligand activity | identical result |  |  | 47(40-53) | 29.6(17.4-48.1) | strong staining for VEGF
